Some results are limits rather than exact numbers.

The target in one experiment is T1, human LXRα (Homo sapiens, UniProt Q13133).
T1 construct: biotin (biotinylated); made in house; host or cells: E. coli (crude extract)
T1 sequence (Q13133 1-447): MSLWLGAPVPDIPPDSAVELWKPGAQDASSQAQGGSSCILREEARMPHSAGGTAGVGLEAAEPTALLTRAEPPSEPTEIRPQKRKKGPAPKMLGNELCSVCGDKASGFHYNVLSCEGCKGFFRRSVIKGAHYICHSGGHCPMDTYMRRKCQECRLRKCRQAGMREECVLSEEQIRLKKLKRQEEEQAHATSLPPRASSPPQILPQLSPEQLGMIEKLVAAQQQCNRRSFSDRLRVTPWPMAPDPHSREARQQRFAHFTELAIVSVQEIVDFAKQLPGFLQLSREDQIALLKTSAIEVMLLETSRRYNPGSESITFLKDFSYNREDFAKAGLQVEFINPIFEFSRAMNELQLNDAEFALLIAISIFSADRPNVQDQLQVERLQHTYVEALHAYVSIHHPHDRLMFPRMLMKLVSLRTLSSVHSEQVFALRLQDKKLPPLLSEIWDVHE
The experiment in a line: Ligand-binding test procedure for human LXRα (3H T0901317 tracer, flash plates). The note with it: biotinylated hLXRα from E. coli extract; tracer 3H T0901317. A digest of the protocol:
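Biotinylated hLXRα from E. coli extract (50 mM Tris) captured on streptavidin flash plates overnight at 4 °C. Compound dilution series mixed with 5 nM [3H]T0901317 (concentration before mixing), incubated overnight at 4 °C; wells aspirated, washed and remaining radioactivity counted.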

Another experiment addresses T2, human LXRβ (Homo sapiens, UniProt P55055).
T2 construct: biotin (biotinylated); made in house; host or cells: E. coli (crude extract)
T2 sequence (P55055 1-460): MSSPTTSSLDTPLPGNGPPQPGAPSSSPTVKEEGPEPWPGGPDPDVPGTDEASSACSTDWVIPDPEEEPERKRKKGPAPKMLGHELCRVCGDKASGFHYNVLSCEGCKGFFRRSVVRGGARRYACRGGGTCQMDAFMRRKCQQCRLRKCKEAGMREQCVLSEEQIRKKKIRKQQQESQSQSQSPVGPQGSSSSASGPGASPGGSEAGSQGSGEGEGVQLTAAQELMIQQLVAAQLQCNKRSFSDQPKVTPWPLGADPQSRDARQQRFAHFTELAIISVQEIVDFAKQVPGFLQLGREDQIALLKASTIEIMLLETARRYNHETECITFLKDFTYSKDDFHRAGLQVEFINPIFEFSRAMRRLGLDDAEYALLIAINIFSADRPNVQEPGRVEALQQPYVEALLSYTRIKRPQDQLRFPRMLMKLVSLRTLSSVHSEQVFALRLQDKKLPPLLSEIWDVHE
The experiment in a line: Ligand-binding test procedure for human LXRβ (3H T0901317 tracer, flash plates). Particulars: biotinylated hLXRβ from E. coli extract; tracer 3H T0901317. The gist of the method:
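Biotinylated hLXRβ from E. coli extract was captured on streptavidin flash plates (Bmax ~4000 cpm) at 4 °C overnight. Test ligand dilutions were mixed with 5 nM [3H]T0901317 tracer solution and incubated on the plates overnight at 4 °C; bound radioactivity was counted after washing.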

The subject of another experiment is ABCA1 gene. The experiment in a line: Quantitative analysis of ABCA1 gene regulation in THP-1 cells (real-time PCR). The format is cell-based, human. The note with it: Gene regulation by LXR (Human), differentiated THP-1 cells, 18 hrs; for EC50: ABCA1 mRNA, read-out: EC50 ABCA1; for Emax: LXR agonist reference at 1.0 uM as positive control, read-out: Agonism ABCA1. Here is the method:
III. Quantitative Analysis of ABCA1 Gene Regulation in THP-1 Cells. The compounds of formula (I) effect on the regulation of the ABCA1 gene was evaluated using the following procedure. Materials and Methods Cell culture: The THP-1 monocytic cell line (ATCC #TIB-202) was obtained from American Type Culture Collection (Manassas, Va.) and cultured in RPMI 1640 medium (Gibco, Carlsbad, Calif.) containing 10% FBS, 2 mM L-glutamine, and 55 uM beta-Mercaptoethanol (BME). […] Louis, Mo.) for three days to induce differentiation into adherent macrophages. Differentiated THP-1 cells were treated with test compounds or ligands dissolved in DMSO (Sigma, D-8779) in culture medium lacking phorbal ester. […] Dose response effects were measured in duplicate, in the range of 0.001 to 30 micromolar concentrations and treated cells were incubated for an additional 18 hrs prior to RNA isolation. Unstimulated cells treated with vehicle were included as negative controls on each plate. […] L., J. Med. Chem. (2000), 45:1963-1966.). Results of antagonist analysis are expressed as % antagonism and IC50 (in μM). RNA isolation and quantitation: Total cellular RNA was isolated from treated cells cultured in 96-well plates using PrepStation 6100 (Applied Biosystems, Foster City, Calif.), according to the manufacturer's recommendations. RNA was resuspended in ribonuclease-free water and stored at -70° C. prior to analysis. RNA concentrations were quantitated with RiboGreen test procedure, #R-11490 (Molecular Probes, Eugene, Oreg.). Gene expression analysis: Gene-specific mRNA quantitation was performed by real-time PCR with the Perkin Elmer Corp. chemistry on an ABI Prism 7700 Sequence detection system (Applied Biosystems, Foster City, Calif.) according to the manufacturer's instructions. Samples (50-100 ng) of total RNA were assayed in duplicate or triplicate in 50 ul reactions using one-step RT-PCR and the standard curve method to estimate specific mRNA concentrations. Sequences of gene-specific primer and probe sets were designed with Primer Express Software (Applied Biosystems, Foster City, Calif.). […] Relative levels of ABCA1 mRNA are normalized using GAPDH mRNA or 18S rRNA probe/primer sets purchased commercially (Applied Biosystems, Foster City, Calif.). Statistics: Mean, standard deviation and statistical significance of duplicate evaluations of RNA samples were assessed using ANOVA, one-way analysis of variance using SAS analysis. Reagents: -GAPDH Probe and Primers-Taqman GAPDH Control Reagents 402869 or 4310884E 18S Ribosomal RNA-Taqman 18S Control Reagents 4308329 […] Qiagen Quantitect probe RT-PCR 204443.
For orientation: Real-time PCR tracks product formation cycle by cycle.

One may read the IC50 as the concentration at which inhibition is half-maximal. A low value points to higher potency. What is called EC50 is the concentration giving half of the maximal effect. For `CCS(=O)(=O)c1cccc(Oc2cccc(-c3c(C(C)C)nc4c(Cl)cccn34)c2)c1` [Example 67, 8-chloro-3-{3-[3-(ethylsulfonyl)phenoxy]phenyl}-2-isopropylimidazo[1,2-a]pyridine], the IC50 on human LXRα was 405 nM; on human LXRβ it was 9.5 nM. Moreover, the EC50 with ABCA1 gene came out at 1620 nM. For the same compound, the Emax in the experiment with ABCA1 gene amounted to 81%.
At human LXRα, `CC(C)c1nc2c(Cl)cccn2c1-c1cccc(Oc2cccc(S(=O)(=O)C(C)C)c2)c1` [Example 68, 8-chloro-2-isopropyl-3-{3-[3-(isopropylsulfonyl)phenoxy]phenyl}imidazo[1,2-a]pyridine] returned an IC50 of 406 nM. Further, the IC50 at human LXRβ worked out at 7.1 nM. In addition, in the experiment with ABCA1 gene, the EC50 was 1260 nM and the Emax was 93%.
Turning to `CCc1nc2c(C#N)cccn2c1-c1cccc(Oc2cccc(S(=O)(=O)CC)c2)c1` [Example 70, 2-ethyl-3-{3-[3-(ethylsulfonyl)phenoxy]phenyl}imidazo[1,2-a]pyridine-8-carbonitrile], the IC50 on human LXRα came out at 4670 nM. At human LXRβ, this compound gave an IC50 of 107 nM. Further, in the experiment with ABCA1 gene, the EC50 was determined as 1260 nM and the Emax came to 95%.
With `CCc1nc2c(C#N)cccn2c1-c1cccc(Oc2cccc(S(=O)(=O)C(C)C)c2)c1` [Example 71, 2-ethyl-3-{3-[3-(isopropylsulfonyl)phenoxy]phenyl}imidazo[1,2-a]pyridine-8-carbonitrile], the IC50 is 2430 nM on human LXRα and 37.2 nM at human LXRβ. Also, the EC50 in the experiment on ABCA1 gene amounted to 1940 nM. For the same compound, the Emax in the experiment with ABCA1 gene came out at 96%.
The like results for `CCS(=O)(=O)c1cccc(Oc2cccc(-c3c(C(C)C)nc4c(C#N)cccn34)c2)c1` [Example 73, 3-{3-[3-(ethylsulfonyl)phenoxy]phenyl}-2-isopropylimidazo[1,2-a]pyridine-8-carbonitrile] were, in that order, 1880 nM, 36.5 nM, 2040 nM and 82%.
`CC(C)c1nc2c(C#N)cccn2c1-c1cccc(Oc2cccc(S(=O)(=O)C(C)C)c2)c1` [Example 74, 2-isopropyl-3-{3-[3-(isopropylsulfonyl)phenoxy]phenyl}imidazo[1,2-a]pyridine-8-carbonitrile] displayed an IC50 on human LXRα of 1260 nM. The IC50 at human LXRβ stood at 24 nM. Also, in the experiment with ABCA1 gene, the EC50 is 560 nM and the Emax amounted to 97%.
The like results for `CC(C)(C)c1nc2c(C(F)(F)F)cccn2c1-c1cccc(Oc2cccc(S(=O)(=O)CCCO)c2)c1` [Example 78, 3-[(3-{3-[2-tert-butyl-8-(trifluoromethyl)imidazo[1,2-a]pyridin-3-yl]phenoxy}phenyl)sulfonyl]propan-1-ol] were, in that order, 167 nM, 9 nM, 1460 nM and 92%.
As to `CCS(=O)(=O)c1cccc(Oc2cccc(-c3c(C(C)(C)C)nc4c(C#N)cccn34)c2)c1` [Example 79, 2-tert-butyl-3-{3-[3-(ethylsulfonyl)phenoxy]phenyl}imidazo[1,2-a]pyridine-8-carbonitrile], the concentration for half-maximal inhibition (IC50) at human LXRα was found to be 745 nM; on human LXRβ, 23.7 nM. For the same compound, the EC50 in the experiment on ABCA1 gene was 285 nM. Besides, in the experiment on ABCA1 gene, the Emax came to 60%.
The matching figures for `CC(C)c1nc2c(C#N)cccn2c1-c1cc(Oc2cccc(S(C)(=O)=O)c2)ccc1Cl` [Example 82, 3-{2-chloro-5-[3-(methylsulfonyl)phenoxy]phenyl}-2-isopropylimidazo[1,2-a]pyridine-8-carbonitrile]: 309 nM, 11.5 nM, 290 nM and 70%.
The compound `CCS(=O)(=O)c1cccc(Oc2ccc(Cl)c(-c3c(C(C)C)nc4c(C#N)cccn34)c2)c1` [Example 83, 3-{2-chloro-5-[3-(ethylsulfonyl)phenoxy]phenyl}-2-isopropylimidazo[1,2-a]pyridine-8-carbonitrile] yielded an IC50 at human LXRα of 218 nM. On human LXRβ, the IC50 came out at 6.8 nM. In addition, in the experiment with ABCA1 gene, the EC50 was found to be 260 nM and the Emax was 76%.
The matching figures for `CC(C)c1nc2c(C#N)cccn2c1-c1cc(Oc2cccc(S(=O)(=O)C(C)C)c2)ccc1Cl` [Example 84, 3-{2-chloro-5-[3-(isopropylsulfonyl)phenoxy]phenyl}-2-isopropylimidazo[1,2-a]pyridine-8-carbonitrile]: 276 nM, 8.5 nM, 375 nM and 70%.
The matching figures for `CC(C)c1nc2c(C(F)(F)F)cccn2c1-c1ccc(-c2ccc(S(=O)(=O)C(C)C)cc2)cc1` [Example 91, 2-isopropyl-3-(4′-(isopropylsulfonyl)biphenyl-4-yl)-8-(trifluoromethyl)imidazo[1,2-a]pyridine]: > 1000 nM, > 1000 nM, 2780 nM and 33%.
The like results for `CC(C)c1nc2c(C(F)(F)F)cccn2c1-c1ccc(Oc2cccc(S(C)(=O)=O)c2)cc1` [Example 119, 2-(1-methylethyl)-3-{4-[3-(methylsulfonyl)phenoxy]phenyl}-8-(trifluoromethyl)imidazo[1,2-a]pyridine] were, in that order, > 1000 nM, 179 nM, 620 nM and 59%.
Consider `CCS(=O)(=O)c1cccc(Oc2ccc(-c3c(C(C)C)nc4c(C(F)(F)F)cccn34)cc2)c1` [Example 120, 3-{4-[3-(ethylsulfonyl)phenoxy]phenyl}-2-(1-methylethyl)-8-(trifluoromethyl)imidazo[1,2-a]pyridine], for which the IC50 at human LXRα was > 1000 nM. Further, at human LXRβ, the IC50 was 117 nM. In the experiment on ABCA1 gene, the EC50 amounted to 590 nM and the Emax came out at 53%.
The like results for `COc1ccccc1-c1nc2c(C(F)(F)F)cccn2c1-c1ccc(Oc2cccc(S(C)(=O)=O)c2)cc1` [Example 126, 2-(2-methoxyphenyl)-3-{4-[3-(methylsulfonyl)phenoxy]phenyl}-8-(trifluoromethyl)imidazo[1,2-a]pyridine] were, in that order, 290 nM, 14 nM, 25 nM and 30%.

Values taken from patent publication US20110112135A1, “Imidazo [1,2-A] Pyridine Compounds” (priority 2007, published 2011).
